One data set in a line: Solubility in water. The class given is physicochemical. The settings on record: 25° C. The source says: (§1) Accordingly, for the desired once a day administration, specific pharmaceutical formulations with modified release of the active ingredient (I), taking account of its physicochemical and biological properties, are required.
A short description of another data set: Plasma half-life. The data set is classed as in vivo.
From the text: as §1

From patent publication US20070026065A1, “Solid, modified-release pharmaceutical dosage forms which can be administered orally” (Bayer HealthCare AG, priority 2004, published 2007) come the findings set out here.

Converted amounts (≈) assume the structure as drawn.

Usually solubility stands for how much of the substance goes into solution per volume. The low end stands for a poorly soluble substance, the high end for a readily soluble substance. As usually defined, the half-life is how long it takes for the measured level to halve.

`O=C(NC[C@H]1CN(c2ccc(N3CCOCC3=O)cc2)C(=O)O1)c1ccc(Cl)s1` [active ingredient (I), 5-Chloro-N-({(5S)-2-oxo-3-[4-(3-oxo-4-morpholinyl)phenyl]-1,3-oxazolidin-5-yl}methyl)-2-thiophenecarboxamide] returned a solubility in “Solubility in water” of around 7 µg/mL (≈ 16.1 µM). Also, the half-life in the data set “Plasma half-life” is around 7 h.
